Results taken from paper PMC9538324 (Journal of medical virology, 2022).

Legend:
[1] = tested on: SARS-CoV-2 Beta variant; assay: Virucidal assay; conditions: virus pretreated with 10 μM, compared with untreated and post-treated controls
[2] = human, in vivo; cited from earlier work

Question: Which “virucidal effect on virus viability” value [1] does the source give for `CCc1nc(C(N)=O)c(Nc2ccc(N3CCC(N4CCN(C)CC4)CC3)c(OC)c2)nc1NC1CCOCC1` [Gilteritinib, gilteritinib] here?
Answer: did not greatly reduce viability

Question: What about the clinical outcome [2] of the same compound?
Answer: successful remission
